The target in data set [1] is T1, Sphingosine kinase 2 (Homo sapiens) (UniProt Q9NRA0).
T1 sequence (whole entry): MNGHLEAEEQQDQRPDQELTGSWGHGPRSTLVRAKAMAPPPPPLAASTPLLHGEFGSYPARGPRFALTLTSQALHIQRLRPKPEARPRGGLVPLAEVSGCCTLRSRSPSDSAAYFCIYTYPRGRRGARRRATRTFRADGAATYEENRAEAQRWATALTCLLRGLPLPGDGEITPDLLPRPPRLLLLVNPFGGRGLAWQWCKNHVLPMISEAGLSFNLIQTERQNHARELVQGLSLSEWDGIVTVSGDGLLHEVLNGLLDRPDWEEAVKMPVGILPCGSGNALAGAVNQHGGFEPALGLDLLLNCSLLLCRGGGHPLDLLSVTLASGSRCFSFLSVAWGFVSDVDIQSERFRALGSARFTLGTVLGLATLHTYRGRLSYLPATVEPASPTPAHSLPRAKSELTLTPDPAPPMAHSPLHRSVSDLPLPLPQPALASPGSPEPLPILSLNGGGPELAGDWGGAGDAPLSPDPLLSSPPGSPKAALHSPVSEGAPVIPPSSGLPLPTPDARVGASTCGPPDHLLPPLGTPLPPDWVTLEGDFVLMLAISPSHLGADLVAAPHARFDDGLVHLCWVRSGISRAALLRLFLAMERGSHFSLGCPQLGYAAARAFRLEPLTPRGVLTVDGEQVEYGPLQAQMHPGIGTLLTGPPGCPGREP
Nature of the data set: Inhibition of human recombinant SphK2 expressed in Sf9 cells assessed as enzyme activity measured as radiolabeled products using 10 uM sphingosine and 10 uM gamma[32P]ATP at 1 uM by liquid scintillation counting. Further details: scale not given: the % may be the effect or the level left.

A short description of the next data set: in vivo. Particulars: mouse, ip, 10 mg/kg.
For the next data set, the target named is T2, Sphingosine kinase 2 (Homo sapiens, UniProt Q9NRA0).
T2 sequence (Q9NRA0 whole entry): T1 sequence (whole entry)
Nature of the data set: biochemical.

The nature of data set [2]: Half life in rat. It is filed as ADME, organism-based. The note with it: in vivo.
Data set [3] relates to U-937. Briefly: Reduction in S1P level in human U937 cells at 100 nM to 1 uM after 2 hrs incubation by LC-MS-MS analysis. The format is functional, cell-based.
In data set [4] the test system is Mus musculus. Nature of the data set: Increase in Sph level in C57BL6/j mouse blood at 10 mg/kg, ip up to 8 hrs by LC-MS-MS analysis relative to control. It is filed as functional, organism-based. More on the design: dose 10 mg/kg.
The nature of data set [5]: Drug uptake in human U937 cells assessed as accumulation in cells at 100 nM to 1 uM after 2 hrs incubation by LC-MS-MS analysis. Particulars: u-937, 2 h, 0.1 µM. The format is ADME, cell-based.
Data set [6] is described as follows: Cytotoxicity against human U937 cells assessed as cell viability up to 3 uM after 24 hrs by trypan blue dye assay. Particulars: u-937, 24 h. It is filed as cell-based.
The test system of data set [7] is U-937. Nature of the data set: Increase in sphingosine level in human U937 cells at 100 nM to 1 uM after 2 hrs incubation by LC-MS-MS analysis. The format is functional, cell-based.
The test system of data set [8] is Mus musculus. Nature of the data set: Increase in S1p level in C57BL6/j mouse blood at 10 mg/kg, ip up to 8 hrs by LC-MS-MS analysis relative to control. It is filed as functional. The note with it: route intraperitoneal.
Data set [9] deals with T1, Sphingosine kinase 2 (Homo sapiens). Particulars: U-937, 3 uM.
Description: Inhibition of SphK2 in human U937 cells assessed as decrease in phosphorylated FTY720 substrate at 3 uM after 2 hrs incubation by LC-MS-MS analysis
For data set [10], the system named is U-937. Briefly: Decrease in S1P level in human U937 cells at 100 nM after 2 hrs incubation by LC-MS-MS analysis.

Each structure is given as a SMILES string. Activity calls are given as the source filed them. The rule behind the calls is not given here.

Description for in vivo: Half life in mouse at 10 mg/kg, ip

Take `CCCCCCCCCCc1ccc(NC(=O)[C@H]2CCCN2C(=N)N)cc1`: the Activity in [1] was 100%.
In the data set “in vivo”, `OC[C@H]1C[C@@H](O)CCN1CCc1ccc(Nc2nc(-c3ccc(C(F)(F)F)cc3)cs2)cc1` gave a half-life of 6.5 h.
`CCCCCCCCc1ccc(-c2noc([C@@H]3CCCN3C(=N)N)n2)cc1.Cl` registered an inhibitory constant (Ki) on Sphingosine kinase 2 of 1.3 µM. In data set [1], the Activity turned out to be 44%.
As for `CCCCCCCCc1ccc(-c2noc([C@@H](NC(=N)N)C(C)C)n2)cc1`, the Activity in data set [1] was determined as 85%.
Still for that read-out and setting: for `CCCCCCCCc1ccc(CNC(=O)[C@@H]2CCCN2C(=N)N)cc1` the value was 95%; for `CCCCCCCCc1ccc(C(=O)NC[C@@H]2CCCN2C(=N)N)cc1`, 75%; for `CCCCCCCCc1ccc(-c2noc([C@@H]3CCCCN3C(=N)N)n2)cc1`, 92%.
`C[C@@H](NC(=O)[C@H]1NCC[C@@H]1O)c1ccc(-c2noc(CCC3CCCC3)n2)cc1`: the half-life in [2] is 4.3 h.
The molecule `Oc1ccc(Nc2nc(-c3ccc(Cl)cc3)cs2)cc1` registered a Ki on Sphingosine kinase 2 of 50 µM.
`CCCCCCCCc1ccc(-c2noc([C@@H]3C=CCN3C(=N)N)n2)cc1`: the Activity in [1] stood at 96%.
On the same count and under the same terms, for `CCCCCCCCc1ccc(-c2noc([C@H](C)NC(=N)N)n2)cc1` the value was 94%; for `CCCCCCCCc1ccc(-c2noc([C@@H]3CCN(C(=N)N)C3)n2)cc1`, 95%.
Regarding `CCCCCCCCc1ccc(CC[C@](N)(CO)COC)cc1`, the affinity at Sphingosine kinase 2, expressed as Ki, was 16.5 µM.
Consider `CCCCCCCCc1ccc(-c2noc([C@H]3CCCN3C(=N)N)n2)cc1`, for which the Activity in data set [1] was determined as 90%.
The same measure, in the same setting: in the case of `CCCCCCCCc1ccc(-c2noc(C3CN(C(=N)N)C3)n2)cc1` it was 96%.
`CCCCCCCCc1ccc(-c2noc([C@@H]3C[C@@H](O)CN3C(=N)N)n2)cc1` registered an inhibition constant Ki on Sphingosine kinase 2 of 5.2 µM. Also, the Activity in [1] is 70%.
On to `CCCCCCCCc1ccc(-c2noc(CNC(=N)N)n2)cc1`, for which the Activity in data set [1] worked out at 90%.
As for `CCCCCCCCc1ccc(-c2noc(CC[C@@H]3CCCN3C(=N)N)n2)cc1`, the Activity in data set [1] is 100%.
Same read-out and setting: in the case of `CCCCCCCCc1ccc(-c2noc(C3(NC(=N)N)CC3)n2)cc1` it was 98%.
`CCCCCc1ccc(/C=C/[C@H](O)[C@@H](CO)NC)cc1` gave an inhibitory constant (Ki) at Sphingosine kinase 2 greater than 100 µM.
On to `CCCCCCCCCCc1ccc(NC(=O)[C@@H]2CCCN2C(=N)N)cc1`, for which, in [1], the Activity was determined as 83%.
Take `CCCCCCCCc1ccc(-c2noc([C@@H]3C[C@H](O)CN3C(=N)N)n2)cc1`: the Activity in data set [1] stood at 90%.
The same measure, in the same setting: in the case of `CCCCCCCCc1ccc(-c2noc([C@@H]3[C@@H](O)CCN3C(=N)N)n2)cc1` it was 65%.
In turn, `CCCCCCCCc1ccc(-c2nc([C@@H]3CCCN3C(=N)N)no2)cc1` returned a Ki on Sphingosine kinase 2 of 1.1 µM. Besides, the Activity in data set [1] was 42%.
As to `CCCCCCCCc1ccc(-c2noc([C@H](CO)NC(=N)N)n2)cc1`, in data set [1], the Activity amounted to 99%.
On to `CCCCCCCCc1ccc(-c2noc(CN(C)C(=N)N)n2)cc1`, for which the Activity in [1] is 90%.
As to `CCCCCCCCc1ccc(-c2noc([C@@H]3CCN3C(=N)N)n2)cc1.Cl`, the inhibition entry (with U-937 [3]; in [9]) was “Active” throughout. The result with Mus musculus [4] and with U-937 [7] was Active. Besides, affinity on Sphingosine kinase 2 was put at a Ki of 1.2 µM. For the same molecule, in data set [5], the Drug uptake entry was “Active”. For the same molecule, the Activity result in data set [6] was “Non-toxic”; in data set [1], 56%. In addition, the “fold change (FC)” value in the data set with Mus musculus [8] is reported as 2.
`CCCCCCCCc1ccc(-c2noc(C[C@@H]3CCCN3C(=N)N)n2)cc1.Cl`: the inhibition result in the data set with U-937 [3] was “Active”. Also, in the data set with U-937 [10], the Inhibition came out at 90%. Further, the Drug uptake entry in data set [5] is reported as “Active”.
Regarding `CCCCCCCCc1ccc(-c2nnc([C@@H]3CCCN3C(=N)N)o2)cc1`, in data set [1], the Activity turned out to be 91%.

What is called half-life is how long it takes for the measured level to halve. The term Ki denotes the equilibrium dissociation constant of an inhibitor or competing ligand from its target. Usually Inhibition stands for the change of the read-out against control, counted positive when it falls.

(Values after ChEMBL document CHEMBL3414421, “Structure-activity relationship studies and in vivo activity of guanidine-based sphingosine kinase inhibitors: discovery of SphK1- and SphK2-selective inhibitors” (J Med Chem, 2015).)
